Drawing on PubChem BioAssay AID258 (DTP/NCI, 2004), this text covers T/C for nine compounds.

The test system of the experiment is CD2F1 mice, L1210 leukemia sc, survival T/C. The experiment in a line: NCI In Vivo Anticancer Drug Screen. Data for tumor model L1210 Leukemia (subcutaneous) in CD2F1 (CDF1) mice. The note with it: endpoint: median survival time, higher = longer survival. The method, boiled down: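 Compound given to mice bearing transplantable tumor. Survival or tumor size then recorded. Result expressed relative to vehicle-dosed control group as T/C.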

Where “and” joins values, the source holds several entries; their conditions need not be identical. Equal entries are not always repeated. Inconclusive results and toxic doses are left out.

Turning to `O=C(Nc1ccccc1)c1c(O)[nH]c(=S)[nH]c1=O`, the T/C was 107 % of control and 96 % of control (dose: 5.6 mg/kg/injection, schedule: Q03HX008 (ip), vehicle: other); 110 % of control (dose: 5.9 mg/kg/injection, schedule: Q04HX006 (iv), vehicle: other); 107 % of control (dose: 8.4 mg/kg/injection, schedule: Q03HX008 (ip), vehicle: other); 105 % of control (dose: 8.9 mg/kg/injection, schedule: Q01DX003 (iv), vehicle: other); 109 % of control (dose: 8.9 mg/kg/injection, schedule: Q04HX006 (iv), vehicle: other); 104 % of control and 111 % of control (dose: 12.6 mg/kg/injection, schedule: Q03HX008 (ip), vehicle: other). The T/C is 101 % of control (dose: 13.4 mg/kg/injection, schedule: Q01DX003 (iv), vehicle: other); 100 % of control and 103 % of control (dose: 13.4 mg/kg/injection, schedule: Q01DX005 (ip), vehicle: other); 113 % of control (dose: 13.4 mg/kg/injection, schedule: Q04HX006 (iv), vehicle: other); 122 % of control (dose: 18.8 mg/kg/injection, schedule: Q03HX008 (ip), vehicle: other); 107 % of control (dose: 20.0 mg/kg/injection, schedule: Q01DX003 (iv), vehicle: other); 106 % of control and 115 % of control (dose: 20.0 mg/kg/injection, schedule: Q01DX005 (ip), vehicle: other). The T/C is, setting by setting: (dose: 20.0 mg/kg/injection, schedule: Q04HX006 (iv), vehicle: other) 119 % of control; (dose: 28.2 mg/kg/injection, schedule: Q03HX008 (ip), vehicle: other) 157 % of control and 163 % of control; (dose: 29.8 mg/kg/injection, schedule: Q01DX001 (ip), vehicle: other) 105 % of control and 107 % of control; (dose: 30.0 mg/kg/injection, schedule: Q01DX003 (iv), vehicle: other) 124 % of control; (dose: 30.0 mg/kg/injection, schedule: Q04HX006 (iv), vehicle: other) 168 % of control; (dose: 44.7 mg/kg/injection, schedule: Q01DX001 (ip), vehicle: other) 117 % of control and 119 % of control. Also, the T/C by setting is: (dose: 45.0 mg/kg/injection, schedule: Q01DX003 (iv), vehicle: other) 161 % of control; (dose: 45.0 mg/kg/injection, schedule: Q01DX005 (ip), vehicle: other) 173 % of control and 184 % of control.

Regarding `Oc1cc(CN(CCCl)CCCl)c(O)cc1CN(CCCl)CCCl`, the T/C is, setting by setting: (dose: 23.4 mg/kg/injection, schedule: Q01DX Z (sc), vehicle: methylcellulose (MC)) 105 % of control; (dose: 38.9 mg/kg/injection, schedule: Q01DX Z (sc), vehicle: methylcellulose (MC)) 110 % of control; (dose: 64.8 mg/kg/injection, schedule: Q01DX Z (sc), vehicle: methylcellulose (MC)) 115 % of control; (dose: 108.0 mg/kg/injection, schedule: Q01DX Z (sc), vehicle: methylcellulose (MC)) 115 % of control; (dose: 180.0 mg/kg/injection, schedule: Q01DX Z (sc), vehicle: methylcellulose (MC)) 105 % of control.

As to `CNCCN=c1ccc2c3c1c(O)c1c(O)ccc(=O)c1c3[nH]n2CCNCCO`, the T/C runs as follows: (dose: 1.08 mg/kg/injection, schedule: Q01DX009 (ip), vehicle: water) 117 % of control; (dose: 3.0 mg/kg/injection, schedule: Q01DX009 (ip), vehicle: water) 206 % of control; (dose: 5.0 mg/kg/injection, schedule: Q01DX009 (ip), vehicle: water) 124 % of control; (dose: 8.3 mg/kg/injection, schedule: Q01DX009 (ip), vehicle: water) 89 % of control.

With `Nc1nc(=S)c2ncn(C3OC(CO)C(O)C3O)c2[nH]1` (configuration not stated), the T/C is 177 % of control (dose: 6.0 mg/kg/injection, schedule: Q01DX Z (sc), vehicle: other); 183 % of control (dose: 10.1 mg/kg/injection, schedule: Q01DX Z (sc), vehicle: other); 155 % of control (dose: 16.9 mg/kg/injection, schedule: Q01DX Z (sc), vehicle: other); 161 % of control (dose: 28.1 mg/kg/injection, schedule: Q01DX Z (sc), vehicle: other); 155 % of control (dose: 46.8 mg/kg/injection, schedule: Q01DX Z (sc), vehicle: other); 123 % of control (dose: 65.0 mg/kg/injection, schedule: Q01DX Z (sc), vehicle: other). The T/C is, setting by setting: (dose: 108.0 mg/kg/injection, schedule: Q01DX Z (sc), vehicle: other) 123 % of control; (dose: 180.0 mg/kg/injection, schedule: Q01DX Z (sc), vehicle: other) 114 % of control; (dose: 300.0 mg/kg/injection, schedule: Q01DX Z (sc), vehicle: other) 104 % of control.

`COc1cccc2c1C(=O)c1c(O)c3c(c(O)c1C2=O)CC(O)(C(C)=O)CC3OC1CC(N)C(O)C(C)O1` (configuration not stated): the T/C is 96 % of control (dose: 2.9 mg/kg/injection, schedule: Q01DX009 (ip), vehicle: saline); 96 % of control (dose: 5.8 mg/kg/injection, schedule: Q01DX009 (ip), vehicle: saline); 98 % of control (dose: 11.7 mg/kg/injection, schedule: Q01DX009 (ip), vehicle: saline); 103 % of control (dose: 23.4 mg/kg/injection, schedule: Q01DX009 (ip), vehicle: saline); 108 % of control (dose: 46.8 mg/kg/injection, schedule: Q01DX009 (ip), vehicle: saline).

Take `COc1ccc2c(c1)-c1nn(CCCN(C)C)c3ccc([N+](=O)[O-])c(c13)N2`: the T/C was 122 % of control (dose: 3.12 mg/kg/injection, schedule: Q01DX009 (ip), vehicle: water); 161 % of control (dose: 6.25 mg/kg/injection, schedule: Q01DX009 (ip), vehicle: water); 104 % of control (dose: 25.0 mg/kg/injection, schedule: Q01DX009 (ip), vehicle: water).

Take `CC(=O)NNC(=O)c1ccccn1`: the T/C runs as follows: (dose: 12.5 mg/kg/injection, schedule: Q01DX009 (ip), vehicle: Klucel (hydroxypropylcellulose) (HPC)) 102 % of control; (dose: 25.0 mg/kg/injection, schedule: Q01DX009 (ip), vehicle: Klucel (hydroxypropylcellulose) (HPC)) 102 % of control; (dose: 25.0 mg/kg/injection, schedule: Q01DX009 (ip), vehicle: saline) 102 % of control; (dose: 25.0 mg/kg/injection, schedule: Q01DX009 (sc), vehicle: saline) 98 % of control; (dose: 50.0 mg/kg/injection, schedule: Q01DX009 (ip), vehicle: Klucel (hydroxypropylcellulose) (HPC)) 105 % of control; (dose: 50.0 mg/kg/injection, schedule: Q01DX009 (ip), vehicle: saline) 104 % of control. Also, the T/C (dose: 50.0 mg/kg/injection, schedule: Q01DX009 (sc), vehicle: saline) is 105 % of control and 109 % of control; the T/C (dose: 100.0 mg/kg/injection, schedule: Q01DX009 (ip), vehicle: Klucel (hydroxypropylcellulose) (HPC)) was 113 % of control; the T/C (dose: 100.0 mg/kg/injection, schedule: Q01DX009 (ip), vehicle: saline) is 106 % of control; the T/C (dose: 100.0 mg/kg/injection, schedule: Q01DX009 (sc), vehicle: saline) was 110 % of control and 113 % of control; the T/C (dose: 200.0 mg/kg/injection, schedule: Q01DX009 (ip), vehicle: Klucel (hydroxypropylcellulose) (HPC)) was 112 % of control; the T/C (dose: 200.0 mg/kg/injection, schedule: Q01DX009 (ip), vehicle: saline) is 114 % of control. For the same compound, where the note is “dose: 200.0 mg/kg/injection, schedule: Q01DX009 (sc), vehicle: saline”, the T/C is 111 % of control and 119 % of control.

On to `Nc1nc([Se]c2nc(N)nc3c2ncn3C2OC(CO)C(O)C2O)c2ncn(C3OC(CO)C(O)C3O)c2n1` (configuration not stated), for which the T/C reads like this: (dose: 12.5 mg/kg/injection, schedule: Q01DX005 (ip), vehicle: distilled water + Tween-80) 106 % of control; (dose: 25.0 mg/kg/injection, schedule: Q01DX005 (ip), vehicle: distilled water + Tween-80) 115 % of control; (dose: 36.0 mg/kg/injection, schedule: Q01DX009 (ip), vehicle: distilled water + Tween-80) 151 % of control; (dose: 50.0 mg/kg/injection, schedule: Q01DX005 (ip), vehicle: distilled water + Tween-80) 122 % of control; (dose: 60.0 mg/kg/injection, schedule: Q01DX009 (ip), vehicle: distilled water + Tween-80) 151 % of control and 168 % of control; (dose: 100.0 mg/kg/injection, schedule: Q01DX009 (ip), vehicle: distilled water + Tween-80) 156 % of control and 164 % of control. Moreover, the T/C (dose: 167.0 mg/kg/injection, schedule: Q01DX009 (ip), vehicle: distilled water + Tween-80) was 255 % of control and 297 % of control.

As for `[Cl][Pt+2][Cl].[NH-]CC1(C[NH-])CCC1`, the T/C (dose: 3.12 mg/kg/injection, schedule: Q01DX009 (ip), vehicle: Klucel (hydroxypropylcellulose) (HPC)) is 158 % of control.
